{
  "source": "patent US11980620B2",
  "about": "“Compounds and methods for treatment of Diamond Blackfan anemia” (THE CHILDREN'S MEDICAL CENTER CORPORATION, priority 2017, dated 2024)",
  "key": {"[1]": {"test": "Dose escalation tolerability in mice", "type": "in vivo", "conditions": "dose escalation up to 20 mg/kg", "text": "(§1) In following evaluation, the effects of administration of SMER28 to mice with irradiation-induced anemia, a model that enables dose-finding and initial testing of safety and bioactivity. […] To assess bioactivity, we measured the levels of autophagic marker LC3 in treated animals. […] (FIG. 10C). We tested the effect of this compound on human cells by treating NSG mice transplanted with human CD34-5F and CB cells. SMER28 increased the output of GlyA^+ RBCs from DBA CD34-5F cells (FIG. 10D).\nDrug treatments. SMER28 was purchased from Tocris and diluted in 10 mM aliquots in DMSO. The final concentration for CD34-5F and CB CD34^+erythroid treatments was 0.2-10 μM as indicated in the text. The final concentration for K562 cell treatments was 20-40 μM. Ferric citrate (1-50 μM) and deferoxamine (100-200 μM) (Sigma) were dissolved in PBS and added on days 0-4 of “expansion” culture, and washed off prior to erythroid stage I (days 4-9) differentiation. For in vivo experiments, SMER28 aliquots were diluted in vehicle solution: 30% PEG-400, 5% propylene glycol, and 0.5% Tween-80. Dosing for human xenograft experiments was 2 mg/kg; for mouse models 10-20 mg/kg. Dexamethasone was purchased as Dex-sodium phosphate (DexSP) water-soluble formulation (Santa Cruz), and diluted in PBS vehicle (1 mg/kg). […]"}, "[2]": {"system": "control iPSCs", "test": "Erythroid differentiation (CD71+GlyA+) of CD34-5F cells from control iPSCs", "type": "cell-based, human", "procedure": "(FIG. 8A) The distribution of 1440 compounds by Z-score in a proliferation-based screen of the Sigma LOPAC chemical library. DBA CD34-5F cells were plated in erythroid-promoting conditions in 384-well format. Erythroid proliferation was measured in the presence of 5 μM of each compound, and converted into Z-scores. The screen was carried out with 3 RPS19 DBA and 2 normal iPSC lines. (FIG. 88) Dose-dependent effect of SMER28 (in μM) on erythroid differentiation, shown as the absolute number of erythroid cells in each drug-treated condition normalized to vehicle (DMSO) control. Erythroid cells were analyzed on day 9 of differentiation using markers CD71 and GlyA. […] (FIG. 8C) Absolute number of erythroid cells (analyzed on day 9) in each drug-treated condition normalized to vehicle (DMSO) control (4 independent experiments). […]\n(FIG. 12A) Erythroid differentiation of control and DBA CD34-5F cells treated with DMSO vehicle or SMER28 (10 μM) during the initial CD34^+ progenitor phase (day 0-4 of differentiation), or stage I of erythroid culture (day 4-9 of differentiation). Percent of erythroid cells after stage I of differentiation is indicated in top left for each condition, and quantitated in (FIG. 12B). […] GFP^+ RPS19^sh and GFP^− control cells were quantitated separately. […] Arrows indicate enucleated RBCs, which are quantitated by flow cytometry. […]"}, "[3]": {"system": "erythroid cells from CB CD34+", "test": "Enucleation efficiency of GLYA+ cells at end of stage III", "type": "cell-based, human", "conditions": "treatment during stages I-III; vehicle 2.4%±1.2", "procedure": "(FIG. 12A) Erythroid differentiation of control and DBA CD34-5F cells treated with DMSO vehicle or SMER28 (10 μM) during the initial CD34^+ progenitor phase (day 0-4 of differentiation), or stage I of erythroid culture (day 4-9 of differentiation). Percent of erythroid cells after stage I of differentiation is indicated in top left for each condition, and quantitated in (FIG. 12B). Data are shown as mean f s.e.m. of 4 independent experiments, with 2 control and 4 DBA iPSCs. (FIG. 12C) Same as (FIG. 12A) for CB CD34+ cells transduced with shRPS19 hairpins. GFP^+ RPS19^sh and GFP^− control cells were quantitated separately. […] (FIG. 12D) RBC pellets at the end of stage III initiated with equal numbers of CD34-5F or CB progenitors. SMER28 was added at […]. (FIG. 12E) May-Grunwald-Giemsa stain of erythroid cells from CB CD34^+ at end of stage III. Arrows indicate enucleated RBCs, which are quantitated by flow cytometry. (FIG. 12F) Quantitation of the enucleation efficiency (left) of GLYA^+ cells. Data in FIGS. 12E-12F represents 3 independent experiments. For all panels, *p<0.05, **p<0.01.\nErythroblasts proliferate rapidly to give rise to terminally differentiated RBCs. […]"}, "[4]": {"system": "LC3", "test": "Autophagic marker LC3 levels in liver of treated mice", "type": "in vivo, mouse", "text": "FIGS. 11A-11C show effect of SMER28 on CD34+ progenitors. (FIG. 11A) Protein levels of LC3-I and LC3-II in control and SMER28 treated mice. GADPH is used as a loading control. […] (FIG. 11C) Atg5 morpholino treatment of rps29^+/− zebrafish.\nas §1"}},
  "data": [
    {"smiles": "C=CCNc1ncnc2ccc(Br)cc12", "note": "[SMER28, 6-Bromo-N-2-propenyl-4-quinazolinam]", "values": [
      {"measurement": "tolerability / overt toxicity", "setting": "[1]", "value": "well tolerated"},
      {"measurement": "effect on number of erythroid cells normalized to vehicle", "setting": "[2]", "value": 2.5, "unit": "fold"},
      {"measurement": "EC50", "setting": "[2]; Homo sapiens, iPSC, read-out: EC50, number of erythroid cells", "value": 1600, "unit": "nM"},
      {"measurement": "efficiency of enucleation", "setting": "[3]", "value": "5.6%±1.6"},
      {"measurement": "LC3-I and LC3-II levels in the liver", "setting": "[4]", "value": "modestly increased"}
    ]}
  ]
}
